Common to all, as to assay type: cell-based
The target of one assay is T1, human TLR7 (Homo sapiens, UniProt Q9NYK1).
T1 construct: host or cells: HEK-Blue cells
T1 sequence (Q9NYK1 27-1049): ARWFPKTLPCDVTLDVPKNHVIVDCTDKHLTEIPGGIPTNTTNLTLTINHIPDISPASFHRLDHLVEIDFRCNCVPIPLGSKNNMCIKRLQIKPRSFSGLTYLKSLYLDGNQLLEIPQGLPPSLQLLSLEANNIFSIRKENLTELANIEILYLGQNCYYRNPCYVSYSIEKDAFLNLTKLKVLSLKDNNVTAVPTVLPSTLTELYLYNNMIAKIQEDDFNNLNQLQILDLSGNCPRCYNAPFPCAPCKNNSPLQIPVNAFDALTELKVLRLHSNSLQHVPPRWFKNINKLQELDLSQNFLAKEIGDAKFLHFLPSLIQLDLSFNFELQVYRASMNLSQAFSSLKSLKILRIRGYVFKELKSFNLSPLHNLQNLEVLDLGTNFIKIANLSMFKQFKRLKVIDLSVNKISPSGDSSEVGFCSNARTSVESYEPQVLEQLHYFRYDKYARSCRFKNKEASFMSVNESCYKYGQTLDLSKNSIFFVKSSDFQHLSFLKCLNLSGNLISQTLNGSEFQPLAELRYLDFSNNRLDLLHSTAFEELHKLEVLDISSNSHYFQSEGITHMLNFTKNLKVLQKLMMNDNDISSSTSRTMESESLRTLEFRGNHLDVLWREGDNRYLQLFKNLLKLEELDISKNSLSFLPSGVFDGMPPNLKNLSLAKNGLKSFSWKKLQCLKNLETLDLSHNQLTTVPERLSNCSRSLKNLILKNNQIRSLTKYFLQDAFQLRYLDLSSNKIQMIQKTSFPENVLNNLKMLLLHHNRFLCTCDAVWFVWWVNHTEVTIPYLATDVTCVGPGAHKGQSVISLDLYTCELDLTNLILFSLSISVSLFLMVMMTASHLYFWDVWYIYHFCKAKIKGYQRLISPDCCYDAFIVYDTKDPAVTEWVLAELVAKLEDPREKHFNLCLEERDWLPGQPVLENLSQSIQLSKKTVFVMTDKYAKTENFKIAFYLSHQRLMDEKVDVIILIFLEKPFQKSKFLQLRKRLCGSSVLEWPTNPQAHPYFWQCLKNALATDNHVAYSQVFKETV
In words: TLR7 inhibition reporter assay (HEK-Blue cells, SEAP reporter, gardiquimod stimulation). Particulars: HEK-Blue cells overexpressing human TLR7, SEAP reporter, gardiquimod 7.5 μM. In outline: (§1)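 Ligand levels: TLR7 gardiquimod 7.5 μM, TLR8 R848 15.9 μM, TLR9 ODN2006 5 nM, added after 30 min room-temperature compound pre-incubation at 0.05 nM-50 μM. Reporter SEAP read with HEK-Blue Detection reagent after 22 h, 37° C. Inhibition expressed as % reduction relative to agonist-plus-DMSO and known-inhibitor controls.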
In general terms: In a reporter assay the amount or activity of a reporter protein is the signal.

For another assay, the target named is T2, human TLR8 (Homo sapiens, UniProt Q9NR97).
T2 construct: host or cells: HEK-Blue cells
T2 sequence (Q9NR97 27-1041): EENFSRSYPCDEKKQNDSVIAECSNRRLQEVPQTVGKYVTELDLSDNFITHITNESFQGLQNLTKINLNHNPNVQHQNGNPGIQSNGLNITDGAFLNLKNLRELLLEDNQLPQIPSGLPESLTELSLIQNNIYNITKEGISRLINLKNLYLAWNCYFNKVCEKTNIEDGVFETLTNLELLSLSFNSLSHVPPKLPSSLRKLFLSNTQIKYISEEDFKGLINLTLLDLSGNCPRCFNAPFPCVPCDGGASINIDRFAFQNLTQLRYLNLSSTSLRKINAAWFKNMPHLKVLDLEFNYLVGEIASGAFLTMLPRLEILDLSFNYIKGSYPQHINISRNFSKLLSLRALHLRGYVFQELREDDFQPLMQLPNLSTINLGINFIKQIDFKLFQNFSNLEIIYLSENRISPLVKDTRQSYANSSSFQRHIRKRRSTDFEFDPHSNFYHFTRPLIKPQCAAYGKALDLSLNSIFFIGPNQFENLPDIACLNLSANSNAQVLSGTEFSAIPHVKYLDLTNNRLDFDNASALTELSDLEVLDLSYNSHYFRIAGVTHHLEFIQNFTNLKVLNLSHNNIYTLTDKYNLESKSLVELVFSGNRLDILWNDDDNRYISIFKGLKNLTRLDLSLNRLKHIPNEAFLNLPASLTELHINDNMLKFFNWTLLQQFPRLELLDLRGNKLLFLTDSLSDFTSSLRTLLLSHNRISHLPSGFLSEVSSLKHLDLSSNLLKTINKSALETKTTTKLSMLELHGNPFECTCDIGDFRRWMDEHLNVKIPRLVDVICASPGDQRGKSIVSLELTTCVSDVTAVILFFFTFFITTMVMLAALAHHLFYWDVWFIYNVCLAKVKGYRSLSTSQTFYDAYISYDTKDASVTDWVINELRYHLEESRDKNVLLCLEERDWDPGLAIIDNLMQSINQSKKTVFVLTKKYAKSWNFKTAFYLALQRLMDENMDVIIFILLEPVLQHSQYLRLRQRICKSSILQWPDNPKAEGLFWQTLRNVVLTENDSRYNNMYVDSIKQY
In words: TLR8 inhibition reporter assay (HEK-Blue cells, SEAP reporter, R848 stimulation). Particulars: HEK-Blue cells overexpressing human TLR8, SEAP reporter, R848 15.9 μM. In a few lines: as §1

The target in the next assay is T3, human TLR9 (Homo sapiens, UniProt Q9NR96).
T3 construct: host or cells: HEK-Blue cells
T3 sequence (Q9NR96 26-1032): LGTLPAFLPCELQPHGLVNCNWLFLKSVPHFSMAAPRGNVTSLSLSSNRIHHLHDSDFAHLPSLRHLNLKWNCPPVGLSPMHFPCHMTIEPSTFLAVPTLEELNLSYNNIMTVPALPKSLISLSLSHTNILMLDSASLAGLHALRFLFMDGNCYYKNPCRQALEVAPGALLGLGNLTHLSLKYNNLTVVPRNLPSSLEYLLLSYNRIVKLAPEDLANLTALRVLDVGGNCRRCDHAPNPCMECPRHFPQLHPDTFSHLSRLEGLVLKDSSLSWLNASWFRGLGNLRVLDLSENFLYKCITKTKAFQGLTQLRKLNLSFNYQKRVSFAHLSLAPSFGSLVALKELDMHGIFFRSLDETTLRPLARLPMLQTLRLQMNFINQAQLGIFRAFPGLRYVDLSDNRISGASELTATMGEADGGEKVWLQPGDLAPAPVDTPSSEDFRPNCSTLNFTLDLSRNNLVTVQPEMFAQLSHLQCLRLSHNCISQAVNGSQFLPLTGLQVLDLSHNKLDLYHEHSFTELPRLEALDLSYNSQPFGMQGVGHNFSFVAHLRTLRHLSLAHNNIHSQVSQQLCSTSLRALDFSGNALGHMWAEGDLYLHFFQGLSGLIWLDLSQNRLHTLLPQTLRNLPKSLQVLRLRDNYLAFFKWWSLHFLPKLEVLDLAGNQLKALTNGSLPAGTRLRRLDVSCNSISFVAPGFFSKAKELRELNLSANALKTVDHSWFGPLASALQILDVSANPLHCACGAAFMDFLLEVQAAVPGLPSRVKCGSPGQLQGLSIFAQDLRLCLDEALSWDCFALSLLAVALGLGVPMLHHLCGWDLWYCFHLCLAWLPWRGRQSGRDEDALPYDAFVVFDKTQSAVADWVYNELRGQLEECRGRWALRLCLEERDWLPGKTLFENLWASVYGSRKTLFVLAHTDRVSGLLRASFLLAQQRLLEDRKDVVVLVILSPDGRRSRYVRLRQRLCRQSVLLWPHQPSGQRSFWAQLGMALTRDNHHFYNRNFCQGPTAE
Description: TLR9 inhibition reporter assay (HEK-Blue cells, SEAP reporter, ODN2006 stimulation). Particulars: HEK-Blue cells overexpressing human TLR9, SEAP reporter, ODN2006 5 nM. In a few lines: as §1

In general, IC50 refers to the concentration that inhibits the measured activity by half. A lower IC50 goes with higher potency. Regarding `COc1cc(-c2[nH]c3ccc(C4CCC(N5CC6(COC6)C5)CC4)cc3c2C(C)C)cn2ncnc12` (stereo not drawn) [Example 80], the IC50 on human TLR7 was found to be 0.85 nM; against human TLR8, 2.1 nM; against human TLR9, 1440 nM.
For `Cc1c(-c2[nH]c3ccc(C4CN(CC(=O)N(C)C)C4)cc3c2C(C)C)cn2ncnc2c1C` [Example 556], the IC50 at human TLR7 turned out to be 6 nM; against human TLR8, 4.9 nM; at human TLR9 it was 5120 nM.
The like results for `Cc1cc(-c2[nH]c3ccc(CCN4CCOCC4)cc3c2C(C)C)cc(C)n1` [Example 393, 2-(2,6-dimethylpyridin-4-yl)-5-[2-(morpholin-4-yl)ethyl]-3-(propan-2-yl)-1H-indole] were, in that order, 18 nM, 9.3 nM and 883 nM.
The like results for `Cc1c(-c2[nH]c3ccc(C4CN(C(=O)CN(C)C)CCO4)cc3c2C(C)C)cn2ncnc2c1C` (stereo not drawn) [Example 329] were, in that order, 1 nM, 3.4 nM and 4140 nM.
The like results for `COc1cc(-c2[nH]c3ccc(C4CCCNC4)cc3c2C(C)C)cn2ncnc12` (stereo not drawn) [Example 181, 6-(3-isopropyl-5-(piperidin-3-yl)-1H-indol-2-yl)-8-methoxy-[1,2,4]triazolo[1,5-a]pyridine] were, in that order, 0.4 nM, 2.8 nM and 1210 nM.
With `Cc1cc(-c2[nH]c3ccc(C4CCC(N5CCC(F)(F)CC5)CC4)cc3c2C(C)C)cn(C)c1=O` (stereo not drawn) [Example 465], the IC50 against human TLR7 is 3 nM; against human TLR8 it was 3.3 nM; on human TLR9, above 50000 nM.
The like results for `COc1cc(-c2[nH]c3ccc(C4CN(CC(=O)N(C)C)C4)cc3c2C(C)C)cn2ncnc12` [Example 262] were, in that order, 618 nM, 66 nM and 22900 nM.
On the same counts, the results for `Cc1cc(-c2[nH]c3ccc(C4CN(C)C(C)(C)CO4)cc3c2C(C)C)cn2ncnc12` (single isomer, unassigned) [Example 375, 2-(3-isopropyl-2-(8-methyl-[1,2,4]triazolo[1,5-a]pyridin-6-yl)-1H-indol-5-yl)-4,5,5-trimethylmorpholine] are 1 nM, 4.7 nM and 2060 nM.
The like results for `COc1cc(-c2[nH]c3ccc(C4CCC(NC5COC5)CC4)cc3c2C(C)C)cn2ncnc12` (stereo not drawn) [Example 64] were, in that order, 0.15 nM, 0.87 nM and 3030 nM.
`Cc1c(-c2[nH]c3ccc(C4CN(CCCC(F)(F)F)C4)cc3c2C(C)C)cn2cnnc2c1C` [Example 554]: the IC50 against human TLR7 is 18 nM; at human TLR8 it was 15 nM; against human TLR9, 5200 nM.
On the same counts, the results for `COc1cc(-c2[nH]c3ccc(C4CCC(NC5(C)COC5)CC4)cc3c2C(C)C)cn2ncnc12` (single isomer, unassigned) [Example 45] are 1 nM, 3.8 nM and 1990 nM.
The like results for `Cc1c(-c2[nH]c3ccc(C4CCC(N(C)C)CC4)cc3c2C(C)C)cn(C)c(=O)c1C` (stereo not drawn) [Example 476] were, in that order, 3 nM, 2.6 nM and 4770 nM.
On the same counts, the results for `COc1cc(-c2[nH]c3ccc(CCN4CCN(C)CC4)cc3c2C(C)C)cn2ncnc12` [Example 413] are 2 nM, 0.9 nM and 2750 nM.
Turning to `COc1cc(-c2[nH]c3ccc(C4CCC(NC(=O)CC(F)(F)F)CC4)cc3c2C(C)C)cn2ncnc12` (stereo not drawn) [Example 118, 3,3,3-trifluoro-N-(4-(3-isopropyl-2-(8-methoxy-[1,2,4]triazolo[1,5-a]pyridin-6-yl)-1H-indol-5-yl)cyclohexyl)propanamide], the values for the IC50 on human TLR7, on human TLR8 and against human TLR9 were 2 nM, 22 nM and 15600 nM, respectively.
On the same counts, the results for `Cc1c(-c2[nH]c3ccc(C4CN(C(=O)CN(C)C)C4)cc3c2C(C)C)cn(C)c(=O)c1C` [Example 484] are 41 nM, 9.5 nM and 16500 nM.
On the same counts, the results for `COc1cc(-c2[nH]c3ccc(C4CC(NCCS(C)(=O)=O)C4)cc3c2C(C)C)cn2ncnc12` (stereo not drawn) [Example 571] are 0.53 nM, 0.33 nM and 2320 nM.
On the same counts, the results for `Cc1cc(-c2[nH]c3ccc(C4CCCN(C(=O)C5C(C)(C)C5(C)C)C4)cc3c2C(C)C)cc(C)n1` (stereo not drawn) [Example 200] are 40 nM, 244 nM and 26500 nM.
As to `Cc1cc(-c2[nH]c3ccc(C4CCC(N(C)C(=O)CN(C)C)CC4)cc3c2C(C)C)cn2ncnc12` (stereo not drawn) [Example 149], the IC50 amounted to 0.43 nM on human TLR7, 4.6 nM at human TLR8 and 2300 nM at human TLR9.
The like results for `Cc1c(-c2[nH]c3ccc(C4CC(NCCS(C)(=O)=O)C4)cc3c2C(C)C)cn(C)c(=O)c1C` (stereo not drawn) [Example 494] were, in that order, 5 nM, 0.48 nM and 12000 nM.
